In one data set the test system is L929 cells. Briefly: TNF-α-induced cytotoxicity in L929 cells (MTT assay). It is filed as cell-based. Particulars: Mus musculus; for inhibition at 1 µM / inhibition at 3 µM / inhibition at 10 µM / inhibition at 30 µM: read-out: Inhibition (%) of TNF-α-induced cytotoxicity. The protocol: The effects of the limonoids (1–17) on the sensitivity of hepatocytes to TNF-α were assessed by measuring TNF-α-induced decreases in the viability of L929 cells, a TNF-α-sensitive cell line, by using the MTT assay. In the absence of a test sample, the cells incubated with 1 ng/mL TNF-α for 44 h were compared with those not incubated with TNF-α.
Assay for the TNF-α-induced cytotoxicity in L929 cells was performed as described previously. Silybin was used as a reference compound [36].

For data set [1], the system named is LPS-activated NO production in mouse peritoneal macrophages. As to conditions: cited from earlier work; for Inhibition (%) of LPS-activated NO production: mean ± S.E.M. (n = 4); for IC50: mouse peritoneal macrophages, read-out: IC50, inhibition of LPS-activated NO production.
For data set [2], the system named is mouse peritoneal macrophages. Particulars: mean ± S.E.M. (n = 4), cited from earlier work.
Data set [3] deals with primary cultured mouse hepatocytes. Briefly: D-GalN-induced cytotoxicity in primary cultured mouse hepatocytes (MTT assay). Particulars: Hepatocyte, read-out: Inhibition (%) of D-GalN-induced cytotoxicity.
Experimental: Assay for the D-GalN-induced cytotoxicity in primary cultured mouse hepatocytes was performed as described previously [33, 35, 36].
The subject of data set [4] is LPS-activated NO production in mouse peritoneal macrophages. Briefly: LPS-induced NO production in mouse peritoneal macrophages. It counts as cell-based. As to conditions: Mus musculus, Peritoneal macrophage; for IC50: read-out: IC50, inhibition of LPS-activated NO production; for inhibition at 3 µM / inhibition at 10 µM / inhibition at 30 µM / inhibition at 100 µM: read-out: Inhibition (%) of LPS-activated NO production. Here is the method:
The effects of limonoids (1–17) on NO production were examined to provide an estimation of macrophage activation levels in LPS-treated mouse peritoneal macrophages.
Assay for NO production in TGC-induced mouse peritoneal macrophages was performed as described previously. N^G-Monomethyl-L-arginine (L-NMMA) and caffeic acid phenethyl ester (CAPE) were used as reference compounds [33, 36].

Data set [5] is described as follows: Cell viability of LPS-treated mouse peritoneal macrophages (MTT assay). It is filed as cell-based.
The mark [6] stands for this setting: L929, 3 µM, 1 ng/mL TNF-α, 44 h, mean ± S.E.M. (n = 4).
Setting [7] is: L929, 10 µM, 1 ng/mL TNF-α, 44 h, mean ± S.E.M. (n = 4).
Where [8] appears, read: L929, 30 µM, 1 ng/mL TNF-α, 44 h, mean ± S.E.M. (n = 4).
[9] abbreviates: 100 µM, # = cytotoxic effects were observed.
Where [10] appears, read: 10 µM, # = cytotoxic effects were observed.
Where [11] appears, read: 30 µM, # = cytotoxic effects were observed.

Like-named read-outs stand apart in the source and are kept apart here. Where only a bound is given, the exact number is not on record here.

Take `CC(=O)O[C@@H]1[C@H](O)C2C(C)(C)C(=O)C=C[C@]2(C)C2CC[C@@]3(C)[C@H](c4ccoc4)OC(=O)[C@H]4O[C@]43[C@@]21C` (stereo partly drawn) [compound 6, 6α-hydroxygedunin]: the inhibition at 1 µM in the data set with L929 cells (L929, 1 µM, 1 ng/mL TNF-α, 44 h, mean ± S.E.M. (n = 4)) was 8.1 ± 1.9%. In addition, the inhibition at 3 µM in the data set with L929 cells (setting [6]) was 6.7 ± 1.5%; in data set [3], -7.2 ± 2.4%. For the same molecule, the inhibition at 10 µM is 12.1 ± 3% in the data set with L929 cells (setting [7]) and -9.4 ± 0.8% in data set [3]. Also, the inhibition at 30 µM in the data set with L929 cells (setting [8]) was 28.3 ± 1.7%; in data set [3], -0.1 ± 0.7%. The “Inhibition (%) of LPS-activated NO production” value is given as 7.7 ± 7.1% in data set [1] (3 µM), 20.7 ± 4.3% in data set [1] (10 µM), 64.0 ± 3.1% in data set [1] (30 µM) and 97.3 ± 0.3% in data set [1] (100 µM). Further, in data set [1], the IC50 is 19.1 µM. Moreover, the “cell viability (%) in MTT assay (values in parentheses)” value (shortened to “cell viability (%) in MTT assay”) in data set [2] (3 µM) is reported as 88.4 ± 3.0%; in data set [2] (10 µM) it was 87.6 ± 4.0%; in data set [2] (30 µM), 90.4 ± 2.6%; in data set [2] (setting [9]), 82.2 ± 4.2%. Besides, in data set [3], the inhibition at 100 µM is -2.8 ± 0.5%.
In the case of `[H]/N=C(/NC)NCCC[C@H](N)C(=O)O` [L-NMMA, N^G-monomethyl-L-arginine, reference compound], the “Inhibition (%) of LPS-activated NO production” value in data set [1] (3 µM) is recorded as 1.4 ± 2.8%; in data set [1] (10 µM), 19.9 ± 2.8%; in data set [1] (30 µM) it was 43.0 ± 2.1%; in data set [1] (100 µM) it was 70.9 ± 1.6%. Besides, the IC50 in data set [1] was 36 µM. The “cell viability (%) in MTT assay” value in data set [2] (3 µM) is listed as 101.1 ± 5.7%; in data set [2] (setting [10]), 100.7 ± 6.2%; in data set [2] (setting [11]), 102.6 ± 4.2%; in data set [2] (setting [9]), 106.4 ± 4.6%.
As to `O=C(/C=C/c1ccc(O)c(O)c1)OCCc1ccccc1` [CAPE, caffeic acid phenethyl ester, reference compound], the “Inhibition (%) of LPS-activated NO production” value in data set [1] (3 µM) is recorded as 5.9 ± 5.2%; in data set [1] (10 µM), 44.4 ± 3.2%; in data set [1] (30 µM) it was 86.2 ± 1.1%; in data set [1] (100 µM), 99.6 ± 0.1%. In data set [1], the IC50 was 11 µM. Moreover, the “cell viability (%) in MTT assay” value in data set [2] (3 µM) is 95.4 ± 0.7%; in data set [2] (setting [10]), 70.0 ± 4.0%; in data set [2] (setting [11]) it was 71.4 ± 6.0%; in data set [2] (setting [9]) it was 53.0 ± 1.4%.
As to `CCC(=O)OC1C2(O)C(OC(C)=O)C3(C)CC24OC2(C)OC15C1CC(=O)OC(c6ccoc6)C1(C)C(OC(C)=O)CC5(O2)C4(C)C3C(OC(C)=O)C(=O)OC` (stereo not drawn) [compound 14, Carapanolide Q], in data set [4], the IC50 was 38 µM, the inhibition at 3 µM came to 1.9 ± 0.7%, the inhibition at 10 µM came to 14.4 ± 2.2% and the inhibition at 30 µM was found to be 44.3 ± 1.1%. Further, the inhibition at 100 µM in data set [4] was 75.3 ± 3.5%. In data set [5] (LPS-treated TGC-induced mouse peritoneal macrophages, 3 µM, mean ± S.E.M. (n = 4), read-out: cell viability (%) in MTT assay (values in parentheses) (converted)), the viability at 3 µM was 99.8%. The viability at 10 µM in data set [5] (LPS-treated TGC-induced mouse peritoneal macrophages, 10 µM, mean ± S.E.M. (n = 4), read-out: cell viability (%) in MTT assay (values in parentheses) (converted)) is 96.3%. For the same molecule, the viability at 30 µM in data set [5] (LPS-treated TGC-induced mouse peritoneal macrophages, 30 µM, mean ± S.E.M. (n = 4), read-out: cell viability (%) in MTT assay (values in parentheses) (converted)) was 95.5%. Moreover, the viability at 100 µM in data set [5] (LPS-treated TGC-induced mouse peritoneal macrophages, 100 µM, mean ± S.E.M. (n = 4), # = cytotoxic effects were observed, read-out: cell viability (%) in MTT assay (values in parentheses) (converted)) was 116%. Besides, in the data set with L929 cells (setting [6]), the inhibition at 3 µM amounted to 8.6 ± 4.4%. In addition, in the data set with L929 cells (setting [7]), the inhibition at 10 µM was found to be 1.3 ± 4.2%. The inhibition at 30 µM in the data set on L929 cells (setting [8]) was found to be 9.2 ± 2.5%. Also, in data set [3], the inhibition at 3 µM came to 2.7 ± 1.9%, the inhibition at 10 µM was -3.5 ± 2.9%, the inhibition at 30 µM was -2.5 ± 2.1% and the inhibition at 100 µM was -6.2 ± 1.7%.
For `CC1(C)C(=O)C=C[C@@]2(C)C1C[C@@H](O)[C@]1(C)C2CC[C@@]2(C)[C@H](c3ccoc3)OC(=O)[C@H]3O[C@]321` (stereo partly drawn) [compound 4, 7-deacetoxy-7α-hydroxygedunin], the inhibition at 3 µM with L929 cells (L929, 44 h) is -6.5 ± 2.4%; in data set [3] it was -2 ± 1.4%. Further, the inhibition at 10 µM with L929 cells (L929, 44 h) is 2.7 ± 2.3%; in data set [3], -6.3 ± 0.5%. In addition, the inhibition at 30 µM in the data set on L929 cells (L929, 44 h) was 36.5 ± 1.8%; in data set [3], -8 ± 0.4%. In addition, the “Inhibition (%) of LPS-activated NO production” value in data set [1] (3 µM) is 15.7 ± 4.6%; in data set [1] (10 µM), 55.7 ± 4.0%; in data set [1] (30 µM), 98.8 ± 0.4%; in data set [1] (100 µM), 100.2 ± 0.2%. Also, the IC50 in data set [1] is 8.7 µM. The “cell viability (%) in MTT assay” value in data set [2] (3 µM) is given as 110.3 ± 5.9%; in data set [2] (10 µM) it was 106.6 ± 3.1%; in data set [2] (30 µM) it was 96.3 ± 4.6%; in data set [2] (setting [9]), 2.6 ± 0.5%. Moreover, in data set [3], the inhibition at 100 µM is -4.1 ± 0.7%.
For `C=C1[C@@H]2CC[C@@]3(C)[C@H](c4ccoc4)OC(=O)C[C@]13O[C@H]1CC(=O)C(C)(C)[C@H](CC(=O)OC)[C@]12C` [compound 7, methyl angolensate], the inhibition at 1 µM with L929 cells (L929, 44 h) is -0.5 ± 3.5%. The inhibition at 3 µM with L929 cells (L929, 44 h) was 0.6 ± 2.9%; in data set [3], -2.1 ± 1.2%. Moreover, the inhibition at 10 µM was 13.3 ± 2.6% in the data set on L929 cells (L929, 44 h) and -7.5 ± 0.9% in data set [3]. For the same molecule, the inhibition at 30 µM with L929 cells (L929, 44 h) was 24.6 ± 2.9%; in data set [3], -6.3 ± 0.7%. The “Inhibition (%) of LPS-activated NO production” value in data set [1] (3 µM) was 10.1 ± 4.2%; in data set [1] (10 µM), 20.0 ± 8.1%; in data set [1] (30 µM), 42.2 ± 3.5%; in data set [1] (100 µM) it was 24.0 ± 4.2%. Besides, the IC50 in data set [1] is more than 100 µM. For the same molecule, the “cell viability (%) in MTT assay” value is recorded as 108.8 ± 11.0% in data set [2] (3 µM), 108.8 ± 5.5% in data set [2] (10 µM), 111.0 ± 4.5% in data set [2] (30 µM) and 78.1 ± 5.3% in data set [2] (setting [9]). Moreover, the inhibition at 100 µM in data set [3] is -6.6 ± 1%.
As to `CC(=O)O[C@@H]1CC2C(C)(C)C(=O)C=C[C@]2(C)C2CC[C@]3(C)C(=CC(=O)[C@@]3(O)c3ccoc3)[C@@]21C` (stereo partly drawn) [compound 9, 17β-hydroxyazadiradione], in data set [4], the IC50 was determined as 20.3 µM, the inhibition at 3 µM was -10.4 ± 6.8%, the inhibition at 10 µM stood at 9.4 ± 7.1% and the inhibition at 30 µM stood at 65.1 ± 4.5%. For the same molecule, the inhibition at 100 µM in data set [4] came out at 97.4 ± 0.7%. In data set [5], the viability at 3 µM was 95.4%, the viability at 10 µM stood at 94.4 ± 14.1%, the viability at 30 µM was 94.8% and the viability at 100 µM is 84.8%. Besides, in the data set on L929 cells (L929, 44 h), the inhibition at 1 µM is 14.1 ± 3.4%, the inhibition at 3 µM was 23.9 ± 3.9%, the inhibition at 10 µM was 64 ± 3.3% and the inhibition at 30 µM is 91.3 ± 8.2%. In addition, the IC50 in the data set with L929 cells (L929 cells, 1 ng/mL TNF-α, 44 h, read-out: IC50, inhibition of TNF-α-induced decrease in cell viability) was 6.9 µM. In data set [3], the inhibition at 3 µM came out at 15.3 ± 2.3%, the inhibition at 10 µM is -4.1 ± 1.2%, the inhibition at 30 µM is -7.5 ± 1.4% and the inhibition at 100 µM is -7.5 ± 4%.

The values above are taken from PMC4849045, “Hepatoprotective Limonoids from Andiroba (Carapa guianensis)” (International Journal of Molecular Sciences, 2016).
